The values that follow come from PubChem BioAssay AID1963970 (Molecular Pharmacology Branch, DTP, NCI, 2024).

Values joined by “and” are separate entries in the source; they are usually repeats but may differ in a detail not shown here. Equal entries are not always repeated.

This experiment relates to 931267-113-T-J1-PDC multicell spheroid viability. The experiment is described as follows: Anticancer human tumor 931267-113-T-J1-PDC patient-derived colon adenocarcinoma cell line growth inhibition [PI3K]. Particulars: for viability, T/C: stronger effect = lower value; for IC50: curve of compound. The source says:
Combinatorial screen of targeted agents with the PI3K inhibitors inavolisib, alpelisib, duvelisib, and copanlisib in multi-cell type tumor spheroids
A high-throughput screen of multi-cell type tumor spheroids was designed to identify active combinations of targeted small molecules and PI3K pathway inhibitors. Complex spheroids include a stromal component modeled by human endothelial cells (HUVEC) and fibroblasts modeled by human mesenchymal stem cells (MSCs). The concentration ranges selected for each drug and investigational agent were based upon clinically achievable concentrations if the clinical Cmax of the agent was known.
Compounds. The drugs and investigational agents: inavolisib (NSC800729), alpelisib (NSC765974), duvelisib (NSC772469), copanlisib (NSC816437), ipatasertib (NSC767898), afuresertib (NSC778305), talazoparib (NSC767125), sapanisertib (NSC764658), selumetinib (NSC741078), tovorafenib (DAY101, NSC766906), vemurafenib (NSC761431), ravoxertinib (NSC781343), sotorasib (NSC818433), MRTX1133 (NSC 836407), abemaciclib (NSC 768073), palbociclib (NSC758247), venetoclax (NSC 766270), SY5609 (NSC837396), enzalutamide (NSC755605), and darolutamide (NSC825331), were obtained from the National Cancer Institute (NCI) Developmental Therapeutics Program Chemical Repository. The FDA-approved anticancer drug set is available from the NCI Developmental Therapeutics Program. […] The stock solutions were prepared in dimethyl sulfoxide (DMSO, Sigma-Aldrich, St. Louis, MO, cat. D2650) at 800-fold the tested concentration and stored at -70 degrees C prior to their use. All drugs and investigational agents were tested over a range starting from a high concentration at or near the clinical Cmax and decreasing in half-log increments. If the clinical Cmax for an agent had not been determined, the highest concentration tested was 10 microM.
Cell Culture. All cells were maintained in an incubator at 37 degrees C and 5% CO2 with 95% humidity. The PDC lines were cultured according to standard operating procedures established by the NCI PDMR (https://pdmr.cancer.gov/sops/default.htm). All PDCs were thawed and cultured in Matrigel-coated flasks prepared with a working solution of 1X Ham's F-12 nutrient mix, without supplementation (Invitrogen, Waltham, MA, cat. 11765054), 100 U/mL penicillin-streptomycin (Invitrogen, cat. 15140122), and 2.5% Matrigel (Corning Inc., Corning, NY, cat. 354248) for the first three passages. The 354836-022-R-J1-PDC, 475296-252-R-J1-PDC, and 997726-040-R-J2-PDC lines were cultured in 6A media, which includes advanced DMEM/F-12 (Thermo Fisher Scientific, cat. 12634028), 10 mM HEPES (Thermo Fisher Scientific, cat. 15630080), 1X GlutaMAX supplement (Thermo Fisher Scientific, cat. 35050061), 0.1 mg/mL primocin (InvivoGen, San Diego, CA, cat. ant-pm-2), 10% defined fetal bovine serum, heat inactivated (HyClone Laboratories Inc., Logan, UT, cat. SH30070.03HI), 50% L-WRN conditioned media (ATCC, cat. CRL-3276), 1.25 mM N-Acetyl-L-cysteine (Sigma-Aldrich, cat. A9165), 10 mM nicotinamide (Sigma-Aldrich, cat. N0636), 1X B-27 supplement (Thermo Fisher Scientific, cat. 17504044), 1X N-2 supplement (Thermo Fisher Scientific, cat. 17502048), and 10 microM Y-27632 dihydrochloride (Tocris Bioscience, Bristol, United Kingdom, cat. 1254). The 624824-186-R-J2-PDC line was cultured in 6C/Colon 1B media, which includes all 6A media components plus 50 ng/mL human EGF recombinant protein (Thermo Fisher Scientific, cat. PHG0311). […]
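Also: viability read 7 days after compound addition.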

By viability, T/C is commonly meant the result in the treated group divided by that in the control group, in per cent. Broadly, the IC50 is the concentration that gives 50% inhibition. Consider `C#Cc1c(F)ccc2cc(O)cc(-c3ncc4c(N5CC6CCC(C5)N6)nc(OCC56CCCN5CC(F)C6)nc4c3F)c12` (configuration not stated), for which the IC50 is 670 nM [middle of 4 runs]. Moreover, the viability, T/C (compound 0.0316 µM) was 85% [middle of 4 runs]. Besides, the viability, T/C (compound 0.1 µM) is 71.4% [middle of 4 runs]. Also, for the setting “compound 0.316 µM”, the viability, T/C is 58.2% [middle of 4 runs]. Further, the viability, T/C (compound 1 µM) is 44.2% [middle of 4 runs]. The viability, T/C (compound 3.16 µM) was 36.2% [middle of 4 runs]. The viability, T/C (compound 10 µM) was 24% and 25.4% and 23.7% (2×).

Regarding `C=CC(=O)N1CCN(c2nc(=O)n(-c3c(C)ccnc3C(C)C)c3nc(-c4c(O)cccc4F)c(F)cc23)C(C)C1` (configuration not stated), the half-inhibitory concentration (IC50) was above 10 µM. Further, the viability, T/C (compound 0.0316 µM) is 119% and 104% (2×) and 102%. For the setting “compound 0.316 µM”, the viability, T/C is 106% [middle of 4 runs]. For the same compound, where the note is “compound 1 µM”, the viability, T/C is 109% [middle of 4 runs]. Besides, the viability, T/C (compound 3.16 µM) was 108% and 110% (2×) and 107%. In addition, the viability, T/C (compound 10 µM) was 104% and 105% (2×) and 99.7%.

With `CC1(C)CCC(Nc2ncc(C(F)(F)F)c(-c3c[nH]c4c(P(C)(C)=O)c(C#N)ccc34)n2)CN1` (configuration not stated), the 50% inhibitory concentration (IC50) is above 10 µM. For the setting “compound 0.0316 µM”, the viability, T/C is 107% [middle of 4 runs]. Also, the viability, T/C (compound 0.1 µM) is 102% [middle of 4 runs]. The viability, T/C (compound 0.316 µM) was 89.3% [middle of 4 runs]. Where the note is “compound 1 µM”, the viability, T/C was 85.7% [middle of 4 runs]. Moreover, for the setting “compound 10 µM”, the viability, T/C is 64.5% [middle of 4 runs].

As for `Cn1ncc(Cl)c1-c1cc(C(=O)NC(CN)Cc2cccc(F)c2)sc1Cl` (configuration not stated), the IC50 is 7.22 µM [middle of 4 runs]. Also, the viability, T/C (compound 0.0316 µM) is 105% [middle of 4 runs]. For the same compound, for the setting “compound 0.1 µM”, the viability, T/C was 98.2% [middle of 4 runs]. For the same compound, the viability, T/C (compound 0.316 µM) is 96.1% [middle of 4 runs]. Moreover, the viability, T/C (compound 1 µM) was 87.7% [middle of 4 runs]. For the same compound, where the note is “compound 3.16 µM”, the viability, T/C was 77.1% [middle of 4 runs]. For the setting “compound 10 µM”, the viability, T/C is 39.5% [middle of 4 runs].

Regarding `Cn1nccc1Nc1nccc(-c2ccn(C(CO)c3ccc(Cl)c(F)c3)c(=O)c2)n1` (configuration not stated), the viability, T/C by setting is: (compound 0.0316 µM) 100% [middle of 4 runs]; (compound 0.1 µM) 91.3% [middle of 4 runs]; (compound 0.316 µM) 90.2% [middle of 4 runs]; (compound 1 µM) 74.1% [middle of 4 runs]; (compound 3.16 µM) 67.2% [middle of 4 runs]; (compound 10 µM) 40.4% [middle of 4 runs].
